Entries after “also recorded” stand apart in the source; their conditions may differ. Read-outs that look alike come from different tables or passages of the source.
Columns and labels:
[1] = biological target: T1, UBE2T/FANCLRING (ubiquitylation of GST-FANCLRING) (Homo sapiens, UniProt Q9NW38); assay: biochemical; settings: for LE: ligand efficiency = 1.4(–logIC50)/HAC; for inhibition at 20 µM: read-out: Primary screen % Inhibition (20 M)
T1 sequence (Q9NW38 275-375 limits assumed): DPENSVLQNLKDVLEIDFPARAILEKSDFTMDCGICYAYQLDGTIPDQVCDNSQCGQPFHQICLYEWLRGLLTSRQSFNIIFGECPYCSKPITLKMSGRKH
Description: To identify small-molecule inhibitors of the FA pathway, we developed a high-throughput screen (HTS) compatible assay based on the FA ubiquitylation cascade (see Figure 1a, as well as Figure S1 in the Supporting Information). Given the complexity of the full FA ubiquitylation cascade, we constructed a simplified ubiquitylation reaction that would be robust for HTS purposes yet still provide many relevant protein species for small molecules to interact with. The recombinant protein assay developed used homogeneous time-resolved fluorescence (HTRF) and contained Cy5-labeled ubiquitin, the E1 enzyme UBE1, the E2 enzyme UBE2T, and the RING domain (residues 275–375) of the E3 FANCL (FANCLRING). FANCLRING was used as a surrogate substrate for ubiquitylation in the absence of the FA core and FANCD2/FANCI complexes.
Figure 1 Screening for inhibitors of the FA pathway. (a) Schematic of the HTRF ubiquitylation assay. Ubiquitylation of GST-tagged E3 (FANCLRING) by the E2 (UBE2T) places Cy5-labeled ubiquitin in close proximity to the anti-GST Tb cryptate. Excitation of the Tb cryptate donor results in FRET to the Cy5 acceptor. Simultaneous monitoring of the donor emission (620 nm) and acceptor emission (665 nm) allows for determination of the 665/620 ratio. (b) HTRF screen results showing average inhibition (n = 2) produced by compounds at 20 μM (in-house diversity library; 10 111 compounds) and 10 μM (Selleckchem epigenetic library; 119 compounds). Numbers given in parentheses represent the number of compounds per inhibition threshold.
Purified protein was concentrated using a Vivaspin-6 concentrator with a 10 kDa MW cut-off (Vivascience) and flash-frozen in small aliquots for storage at […]
Cy5 labelling of ubiquitin. To a 5 mg/mL solution of recombinant human ubiquitin (Boston Biochem) in 0.1 M NaHCO3 pH 8.3, was added a 4-fold molar excess of Cyanine5 NHS ester (Lumiprobe). The reaction was incubated at 23 °C for 4 hours in the dark. The protein was separated from unreacted dye by passage through a PD-10 desalting column (GE Healthcare) equilibrated with PBS. Purified protein was concentrated using a Vivaspin-6 concentrator with a 3 kDa MW cut-off (Vivascience) and flash-frozen in small aliquots for storage […]
Homogeneous Time-Resolved Fluorescence (HTRF) Assay. GST-FANCLRING (200 nM) was incubated with anti-GST Tb (CisBio, #61GSTTL) (2.5 ng final) at room temperature for 30 minutes in assay buffer (50 mM Tris-HCl pH 8.0, 1 mM TCEP, 5 mM MgCl2, 0.005% Tween-20). Meanwhile, 10 μL of UBE2T in assay buffer (or assay buffer alone for no enzyme controls) was incubated in a white 384-well plate (Corning) with 20 nL DMSO or compound in DMSO. After 30 minutes, the GST-RINGRING solution was added to an equal volume solution containing His-UBE1 (Boston Biochem) (16 nM), Cy5-ubiquitin (400 nM), ATP (0.8 mM) in assay buffer. 10 μL of this solution was immediately added to each well of the 384 -well plate containing UBE2T or buffer. F inal concentrations: His -UBE1 (4 nM), UBE2T (6 nM), GST -RINGRING (50 nM), Cy5-ubiquitin (100 nM), ATP (0.2 mM), compound (10 or 20 μM) in 0.1 %
(v/v) DMSO. After a 10 minute incubation at 23 °C, 5 µL of a 50 mM EDTA solution were added to each well to stop the reaction. Signal was measured at λEx 340 nm and λEm 665 nm and 620 nm using a PHERAstar FS plate reader
(BMG Labtech). A ratio was calculated as [λEm(665)/λEm(620)] × 104 for each well and this was used to determine the percent inhibition for test compounds.
Gel-based ubiquitylation assays. Assays were carried out in a total volume of 10 µL containing 20 nM His6-UBE1 (Boston Biochem), 50 nM UBE2T, 250 nM GST-E3 and 500 nM biotinylated ubiquitin (Boston Biochem) in buffer (50

[2] = test system: T2, UBE2T / GST-FANCLRING; assay: Gel-based ubiquitylation assay, E2 = UBE2T, E3 = GST-FANCLRING; format: biochemical; settings: compound 100 μM, 30 min at 37 °C, Western blot
T2 construct: the RING domain (residues 275–375) of the E3 FANCL (FANCLRING); His6 (N); made in house; host or cells: E. coli Rosetta (DE3)

[3] = test system: T3, UBE2T; assay: Gel-based ubiquitylation assay (UBE2T/GST-FANCLRING), blot probed for UBE2T; format: biochemical; settings: compound 100 μM, Western blot probed for UBE2T
T3 construct: His6 (N); made in house; host or cells: E. coli Rosetta (DE3)

[4] = library stock, 10-point dose-response, read-out: Primary screen IC50
[5] = printed beside the structures in Figure S3, read-out: IC50 (Figure S3)

inhibition at 20 µM ([1]; primary screen, compound at 20 μM (head prints '20 M'), n = 2) | SMILES | IC50 [1, 4] | LE [1] | IC50 [1, 5] | inhibition at 20 µM [1] | ubiquitylation of GST-FANCLRING (mUb-GST-FANCLRING band) [2] | ubiquitylation of GST-FANCLRING (mUb-GST-FANCLRING band) ([2]; listed as CU 1) | ubiquitylation of UBE2T [3] | ubiquitylation of UBE2T ([3]; listed as 2) | ubiquitylation of UBE2T ([3]; listed as 9) | ubiquitylation of UBE2T ([3]; listed as 12)
 | NCCN1C(=O)CC[C@H]2CN(Cc3cccc(-c4ccco4)c3)CC[C@H]21 [CU1] | 15.2 µM | 0.23 | 56 µM | 48.4% | no ubiquitylation of FANCLRING was observed; also recorded: inhibit the ubiquitylation of GST-FANCLRING | completely inhibited the ubiquitylation of GST-FANCLRING | did not affect ubiquitylation of either UBE2T or UBE1; also recorded: unaffected |  |  | 
 | CCN1CCN(c2cc(C)nc3nc(CN4CCCCC4C)nn23)CC1 (stereo not shown) [CU2] | 8.4 µM | 0.26 | 14.8 µM | 63.4% | no ubiquitylation of FANCLRING was observed; also recorded: inhibit the ubiquitylation of GST-FANCLRING; also recorded: completely inhibited the ubiquitylation of GST-FANCLRING |  | did not affect ubiquitylation of either UBE2T or UBE1 | unaffected |  | 
 | Cc1nnc(N(C)CC2CCN(CC(C)O)CC2)c(C#N)c1C (stereo not shown) [CU9] | 31.4 µM | 0.26 | 45.4 µM | 48.2% | no ubiquitylation of FANCLRING was observed; also recorded: inhibit the ubiquitylation of GST-FANCLRING; also recorded: completely inhibited the ubiquitylation of GST-FANCLRING |  | did not affect ubiquitylation of either UBE2T or UBE1 |  | unaffected | 
107% | NC(=O)[C@@H]1CCCN1C(=O)c1cc(-n2cccc2)ccc1Cl [CU12] | 11.5 µM | 0.32 | 9.9 µM |  | no ubiquitylation of FANCLRING was observed |  | prevented the ubiquitylation of UBE2T |  |  | essentially completely inhibited

From PMC6804243, “Small-Molecule Inhibition of UBE2T/FANCL-Mediated Ubiquitylation in the Fanconi Anemia Pathway” (ACS Chemical Biology, 2019)
